# Laboratory results taken from ChEMBL document CHEMBL1201862, “PubChem BioAssay data set” (2004).
# Activity calls are given as the source filed them.
# Assays:
# [1] = THP-1 cell cytotoxicity, dose response, cytotoxicity control for Vif-APOBEC3G degradation inhibitor project, THP-1 cells (AID 1117359); assay type: functional; conditions: Human immunodeficiency virus 1, THP-1
# [2] = P. falciparum Dd2 growth inhibitors, dose response, SYBR Green, cherry-picked samples (AID 1159567); assay type: functional, cell-based
# [3] = biological target: T1, Corticotropin-releasing factor receptor 2/Corticotropin-releasing factor-binding protein (Homo sapiens, UniProt P24387+Q13324); test: Dose Response confirmation of uHTS hits for small molecule antagonists of the CRF-binding protein and CRF-R2 receptor complex.; assay type: functional; conditions: read-out: IC50_Mean
# T1 sequence (Q13324 whole entry): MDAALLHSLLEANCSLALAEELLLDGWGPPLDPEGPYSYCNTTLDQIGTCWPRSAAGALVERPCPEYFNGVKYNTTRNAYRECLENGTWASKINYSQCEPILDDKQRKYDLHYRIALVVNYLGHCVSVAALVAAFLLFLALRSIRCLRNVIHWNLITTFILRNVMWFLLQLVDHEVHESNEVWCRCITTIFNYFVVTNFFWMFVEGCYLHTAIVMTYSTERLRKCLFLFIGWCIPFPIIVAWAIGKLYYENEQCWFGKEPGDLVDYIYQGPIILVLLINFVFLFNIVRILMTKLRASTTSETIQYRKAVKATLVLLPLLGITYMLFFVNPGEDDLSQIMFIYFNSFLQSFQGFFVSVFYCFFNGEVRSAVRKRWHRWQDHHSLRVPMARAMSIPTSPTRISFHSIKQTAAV
# T1 sequence (P24387 whole entry): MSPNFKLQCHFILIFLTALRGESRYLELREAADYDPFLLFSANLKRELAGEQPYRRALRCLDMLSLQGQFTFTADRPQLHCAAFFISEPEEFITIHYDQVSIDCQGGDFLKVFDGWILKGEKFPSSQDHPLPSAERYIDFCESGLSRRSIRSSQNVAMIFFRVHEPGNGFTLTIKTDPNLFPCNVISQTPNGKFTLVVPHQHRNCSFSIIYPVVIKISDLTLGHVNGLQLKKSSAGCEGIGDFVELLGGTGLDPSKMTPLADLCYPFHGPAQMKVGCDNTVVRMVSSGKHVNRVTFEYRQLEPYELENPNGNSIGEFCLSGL
# [4] = biological target: T1, Corticotropin-releasing factor receptor 2/Corticotropin-releasing factor-binding protein; test: activators of CRF receptor 2 with binding protein – uHTS hits, confirmation (AID 602473); assay type: functional; conditions: read-out: EC50_Mean
# [5] = biological target: T2, Carboxy-terminal domain RNA polymerase II polypeptide A small phosphatase 1 (Homo sapiens, UniProt Q9GZU7); test: inhibitors of CTDSP1, concentration-response testing, biochemical assay, absorbance-based, actives from ultra-high-throughput screening (AID 540297); assay type: functional
# T2 sequence (Q9GZU7 whole entry): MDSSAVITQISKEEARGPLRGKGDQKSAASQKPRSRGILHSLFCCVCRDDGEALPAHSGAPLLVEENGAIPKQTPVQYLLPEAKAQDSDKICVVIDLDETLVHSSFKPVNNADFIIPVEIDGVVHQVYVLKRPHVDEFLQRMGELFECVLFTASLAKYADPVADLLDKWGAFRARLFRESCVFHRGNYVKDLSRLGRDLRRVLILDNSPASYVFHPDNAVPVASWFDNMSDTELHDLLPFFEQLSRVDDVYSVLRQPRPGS
# [6] = biological target: T3, Replicative DNA helicase DnaB (Mycobacterium tuberculosis, UniProt P9WMR3); test: DnaB intein splicing inhibitors, dose response, biochemical, cell-free fluorescence (AID 449749); assay type: functional
# T3 sequence (P9WMR3 whole entry): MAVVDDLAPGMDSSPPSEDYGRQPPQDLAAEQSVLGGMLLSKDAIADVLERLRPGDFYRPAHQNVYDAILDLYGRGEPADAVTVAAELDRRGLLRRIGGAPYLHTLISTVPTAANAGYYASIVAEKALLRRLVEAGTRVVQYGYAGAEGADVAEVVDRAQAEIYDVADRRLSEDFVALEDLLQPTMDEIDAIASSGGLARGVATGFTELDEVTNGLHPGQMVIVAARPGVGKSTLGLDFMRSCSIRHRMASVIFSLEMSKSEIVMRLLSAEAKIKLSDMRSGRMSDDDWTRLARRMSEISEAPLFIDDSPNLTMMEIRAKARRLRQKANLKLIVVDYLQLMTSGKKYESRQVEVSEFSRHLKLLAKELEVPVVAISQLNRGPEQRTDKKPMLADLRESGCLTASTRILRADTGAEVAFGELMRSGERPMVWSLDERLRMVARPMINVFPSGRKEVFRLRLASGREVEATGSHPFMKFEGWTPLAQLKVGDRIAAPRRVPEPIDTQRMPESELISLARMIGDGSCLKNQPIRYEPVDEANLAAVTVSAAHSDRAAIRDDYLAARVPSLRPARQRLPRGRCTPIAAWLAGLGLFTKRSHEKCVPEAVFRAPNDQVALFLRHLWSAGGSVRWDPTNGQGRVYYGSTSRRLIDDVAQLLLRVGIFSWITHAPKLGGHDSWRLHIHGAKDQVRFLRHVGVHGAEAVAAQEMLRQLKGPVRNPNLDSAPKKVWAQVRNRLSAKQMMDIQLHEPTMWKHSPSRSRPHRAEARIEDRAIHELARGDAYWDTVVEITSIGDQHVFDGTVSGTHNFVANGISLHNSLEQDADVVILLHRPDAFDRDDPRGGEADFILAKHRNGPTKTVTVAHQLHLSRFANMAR
# Protein RecA = biological target: T4, Protein RecA (Mycobacterium tuberculosis, UniProt P9WHJ3); test: Fluorescence Cell-Free Homogeneous Dose Retest to Identify Inhibitors of RecA-Intein Splicing Activity. [Related pubchem assays (depositor defined):AID2097, AID2223, AID489010, AID492950]; assay type: functional
# T4 sequence (P9WHJ3 whole entry): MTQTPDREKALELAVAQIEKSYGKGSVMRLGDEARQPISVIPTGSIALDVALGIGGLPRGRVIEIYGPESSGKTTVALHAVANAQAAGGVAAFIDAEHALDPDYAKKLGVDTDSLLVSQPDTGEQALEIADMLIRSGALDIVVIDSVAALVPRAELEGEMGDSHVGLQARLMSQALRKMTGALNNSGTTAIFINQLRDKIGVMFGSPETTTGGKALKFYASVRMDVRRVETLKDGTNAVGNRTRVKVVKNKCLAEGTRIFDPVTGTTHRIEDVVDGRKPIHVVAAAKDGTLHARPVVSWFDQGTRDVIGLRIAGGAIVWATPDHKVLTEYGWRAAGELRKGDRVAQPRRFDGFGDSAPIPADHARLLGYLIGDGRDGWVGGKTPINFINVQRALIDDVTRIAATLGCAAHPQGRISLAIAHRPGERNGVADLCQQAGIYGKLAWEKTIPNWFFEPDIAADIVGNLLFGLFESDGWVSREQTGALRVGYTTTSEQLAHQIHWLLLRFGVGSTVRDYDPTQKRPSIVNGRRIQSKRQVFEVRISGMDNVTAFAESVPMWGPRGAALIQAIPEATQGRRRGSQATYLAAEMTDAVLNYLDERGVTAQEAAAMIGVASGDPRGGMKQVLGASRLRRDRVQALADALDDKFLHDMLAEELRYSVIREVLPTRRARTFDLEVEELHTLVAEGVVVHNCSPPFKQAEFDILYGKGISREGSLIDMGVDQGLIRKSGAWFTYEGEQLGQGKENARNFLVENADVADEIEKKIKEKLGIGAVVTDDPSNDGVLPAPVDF
# Genome polyprotein = Genome polyprotein (dengue virus type 2, UniProt P29990); test: Dengue-2 NS5 methyltransferase inhibitors, primary screen, biochemical, confirmation dose response (AID 588689); assay type: functional
# [7] = HEp-2 cell cytotoxicity, dose response, cytotoxicity control for RSV inhibitor project, HTS (AID 2410); assay type: functional; conditions: human respiratory syncytial virus
# [8] = biological target: Luciferin 4-monooxygenase (Photinus pyralis, UniProt P08659); test: firefly luciferase enzyme inhibitors, dose response, biochemical, luminescence (AID 1891)
# [9] = Luminescence Cell-Based Dose Confirmation HTS to Identify Inhibitors of Platelet Dense Granule Release. [Related pubchem assays: 1663 (Primary HTS), 1678 (Summary of Project)]; assay type: functional
# Nonstructural protein 1 = Nonstructural protein 1 (Influenza A virus, UniProt Q194T2); assay type: functional, Influenza A virus (A/California/07/2009(H1N1))
# INS1 = test: beta cell apoptosis inhibitors, cytokine rescue, dose response, luminescence, retest (AID 449756); assay type: functional, cell-based; conditions: Rattus norvegicus;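 further: cell death triggered by IL-1 beta plus TNF-alpha plus IFN-gamma mixture; protective hits raise ATP signal compared with cytokine alone wells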
# [10] = inhibitors of intracellular T. cruzi replication, confirmation, NIH3T3 host cells, beta-gal luminescence (AID 2044); assay type: functional, cell-based;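 further: intracellular parasites grown in NIH/3T3 mouse fibroblasts as host cells; luminescent beta-galactosidase reporter signal from transgenic T. cruzi replicating inside host cells; inhibitors lower the luminescence signal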
# [11] = cytotoxicity toward NIH3T3 fibroblasts, dose response, counter-screen, cell-based, ATP luminescence, mouse fibroblasts (AID 2010); assay type: functional;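 further: cells exposed to compound for about 90 hours before reading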
# Vero = Vero cell cytotoxicity, cytotoxicity control for flavivirus capping enzyme inhibitors (AID 588742); assay type: functional; conditions: Chlorocebus sabaeus
# Chain of Luciferin 4-monooxygenase (P08659 whole entry): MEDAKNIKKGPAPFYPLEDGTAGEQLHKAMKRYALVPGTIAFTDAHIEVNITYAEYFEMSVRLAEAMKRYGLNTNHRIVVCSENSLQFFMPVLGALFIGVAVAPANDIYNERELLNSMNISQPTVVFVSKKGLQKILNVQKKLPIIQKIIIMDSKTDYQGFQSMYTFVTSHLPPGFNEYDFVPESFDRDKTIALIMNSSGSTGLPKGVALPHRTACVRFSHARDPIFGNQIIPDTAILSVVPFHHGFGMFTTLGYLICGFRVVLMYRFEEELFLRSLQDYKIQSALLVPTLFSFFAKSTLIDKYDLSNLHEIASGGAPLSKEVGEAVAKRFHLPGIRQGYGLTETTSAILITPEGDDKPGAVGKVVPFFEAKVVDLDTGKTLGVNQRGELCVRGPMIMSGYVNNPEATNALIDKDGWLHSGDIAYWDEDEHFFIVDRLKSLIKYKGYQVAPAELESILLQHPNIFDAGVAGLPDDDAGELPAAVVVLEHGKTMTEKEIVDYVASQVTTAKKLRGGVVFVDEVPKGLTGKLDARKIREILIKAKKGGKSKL
# Chain of Genome polyprotein (P29990 2492-3391 limits assumed): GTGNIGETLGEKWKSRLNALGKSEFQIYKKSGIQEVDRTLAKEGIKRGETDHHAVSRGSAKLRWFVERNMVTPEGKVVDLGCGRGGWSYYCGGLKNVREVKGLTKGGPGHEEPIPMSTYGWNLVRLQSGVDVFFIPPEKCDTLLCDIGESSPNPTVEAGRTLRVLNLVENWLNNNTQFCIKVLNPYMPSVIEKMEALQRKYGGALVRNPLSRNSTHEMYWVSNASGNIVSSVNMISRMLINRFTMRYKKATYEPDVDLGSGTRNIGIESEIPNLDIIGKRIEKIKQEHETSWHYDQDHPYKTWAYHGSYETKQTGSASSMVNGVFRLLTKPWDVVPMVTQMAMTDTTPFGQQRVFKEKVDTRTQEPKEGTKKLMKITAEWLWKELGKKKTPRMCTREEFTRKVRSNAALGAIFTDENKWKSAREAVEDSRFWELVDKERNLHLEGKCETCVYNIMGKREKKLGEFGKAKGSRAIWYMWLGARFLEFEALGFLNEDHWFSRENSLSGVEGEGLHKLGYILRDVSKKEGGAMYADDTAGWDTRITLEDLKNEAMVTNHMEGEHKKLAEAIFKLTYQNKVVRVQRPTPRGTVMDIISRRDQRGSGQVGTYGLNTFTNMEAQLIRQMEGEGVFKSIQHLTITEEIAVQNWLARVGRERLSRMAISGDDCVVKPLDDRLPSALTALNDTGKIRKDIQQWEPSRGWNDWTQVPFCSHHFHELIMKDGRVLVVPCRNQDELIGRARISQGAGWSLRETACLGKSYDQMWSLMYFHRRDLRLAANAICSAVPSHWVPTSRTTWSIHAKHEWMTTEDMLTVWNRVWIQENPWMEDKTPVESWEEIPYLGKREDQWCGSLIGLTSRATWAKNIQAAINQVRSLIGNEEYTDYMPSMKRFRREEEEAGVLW
# Chain of Nonstructural protein 1 (Q194T2 whole entry): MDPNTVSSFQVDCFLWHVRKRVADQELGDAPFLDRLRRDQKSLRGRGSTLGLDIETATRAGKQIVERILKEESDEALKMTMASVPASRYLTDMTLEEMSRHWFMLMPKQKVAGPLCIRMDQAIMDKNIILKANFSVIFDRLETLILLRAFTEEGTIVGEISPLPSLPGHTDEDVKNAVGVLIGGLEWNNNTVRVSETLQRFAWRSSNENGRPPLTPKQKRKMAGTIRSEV
smiles,measurement,setting,value
Cc1ccccc1CCNC(=O)c1ccc(Cl)c(S(=O)(=O)N2CC(C)OC(C)C2)c1 (stereo not given),CC50,[1],> 40 µM (active)
COc1ccc2c3c([nH]c2c1)[C@@H](CO)N(C(=O)C1CCCCC1)CC31CCN(Cc2nccs2)CC1,AC50,[2],4.44 µM (active)
COc1ccccc1NC(=O)CSc1nnc(CNC(=O)c2ccco2)o1,IC50,[3],> 47.1 µM (inactive)
same,EC50,[4],> 53 µM (inactive)
CC(=O)c1ccc(NC(=O)CCc2nnc3ccc(N4CCC5(CC4)OCCO5)nn23)cc1,IC50,[3],> 47.1 µM (inactive)
same,EC50,[4],> 53 µM (inactive)
COc1ccc(C#Cc2ccc3c(c2)[C@@H]2[C@@H](CCN2C(=O)C2CC2)[C@H](CO)N3)cc1,AC50,[2],5.56 µM (active)
COC(=O)c1ccc(C)c(NC(=O)CSc2sc3c(O)cc(=O)[nH]c3c2C#N)c1,IC50,[5],3.04 µM (active)
COc1ccc(Cl)cc1C=CC=NNC(=O)c1ccncc1,IC50,[5],18.9 µM (active)
COc1ccc(NC(=O)C(Sc2ccccc2)c2ccccc2)c(OC)c1 (stereo not given),IC50,[3],> 47.1 µM (inactive)
same,EC50,[4],> 53 µM (inactive)
CCOc1ccc(/C=C2\SC(=S)N(CCC(=O)Nc3ccccc3C(=O)O)C2=O)cc1,AC50,[6],6.1 µM (active)
same,EC50,Protein RecA,15.1 µM (active)
same,IC50,Genome polyprotein,29.3 µM (active)
same,IC50,[5],4.86 µM (active)
C/C(=N\NC(=O)c1ccc(NS(=O)(=O)c2cccs2)cc1)c1ccc2ccccc2c1,CC50,[7],16.7 µM (active)
same,EC50,[8],> 112 µM (not active)
same,EC50,[9],> 112 µM (not active)
COc1ccc2c3c(n(C)c2c1)[C@@H](CO)N(Cc1ccccc1F)CC31CCN(CC2CC2)CC1,AC50,[2],2.61 µM (active)
C=C(C)CNC(=S)N/N=C(\C)c1ccc(OC)cc1,EC50,[8],> 112 µM (not active)
same,EC50,[9],30.5 µM (active)
CCc1ccc(-c2cc(C)no2)cc1S(=O)(=O)N1CCN(c2ccccc2OC)CC1,EC50,[8],> 112 µM (not active)
same,EC50,[9],> 112 µM (not active)
O=C(CN(CCCN1CCOCC1)C(=O)Cn1nnc(-c2ccc(F)cc2)n1)NC1CCCCC1,EC50,[8],> 112 µM (not active)
same,EC50,[9],> 112 µM (not active)
O=C1c2ccccc2C(Nc2ccc3c(c2)OCO3)N1Cc1ccco1 (stereo not given),EC50,[8],> 112 µM (not active)
same,EC50,[9],> 112 µM (not active)
CC1C/C(=C/c2ccco2)C(=O)/C(=C/c2ccco2)C1 (stereo not given),CC50,[1],> 40 µM (active)
COc1ccc(-c2ccc3c(c2)[C@H]2[C@H](CCN2Cc2ccncc2)[C@@H](CO)N3)cc1,AC50,[2],7.26 µM (active)
CN1/C(=C\C(=S)NC(=O)c2ccccc2Cl)C(C)(C)c2ccccc21,IC50,Nonstructural protein 1,29.3 µM (active)
same,AC50,INS1,8.03 µM (active)
O=C(Nc1cccc(N2CCCC2)c1)c1cccs1,EC50,[8],> 112 µM (not active)
same,EC50,[9],> 112 µM (not active)
same,EC50,[10],4.67 µM (active)
same,EC50,[11],> 60 µM (not active)
CC1=NN(C(N)=S)C(=O)C1N=Nc1cccc(Cl)c1C (stereo not given),CC50,Vero,> 40 µM (active)
O=C(CCN1C(=O)/C(=C/c2ccc3c(c2)OCO3)SC1=S)Nc1cccc(C(=O)O)c1,IC50,Genome polyprotein,47 µM (active)
same,IC50,[5],6.78 µM (active)
Cc1ccc(S(=O)(=O)N2[C@@H](c3ccc(Br)cc3)C(C(=O)O)=C[C@H]2CC2CCCC2)cc1,CC50,Vero,> 40 µM (active)
same,IC50,Genome polyprotein,37 µM (active)
N#Cc1c(/N=C/c2ccc(-c3ccccc3C(=O)O)o2)sc2c1CCCC2,IC50,[5],9.17 µM (active)
O=C(c1ccccc1)c1ccc2[nH]c(-c3ccc(NC(=O)c4ccccc4F)cc3)nc2c1,EC50,[8],> 112 µM (not active)
same,EC50,[9],> 112 µM (not active)
CC1=C(SCc2ccccc2)C(=O)c2ccccc2C1=O,CC50,Vero,> 40 µM (active)
same,IC50,Genome polyprotein,76.8 µM (active)
same,CC50,[1],34.6 µM (active)
Cc1ccc(C2CC(c3ccccc3)=NN2C(=O)CSc2nnc(-c3ccc(Cl)cc3)o2)o1 (stereo not given),EC50,[8],> 112 µM (not active)
same,EC50,[9],> 112 µM (not active)
Cc1ccc2[nH]c(/C(C#N)=C/c3ccc(-c4ccccc4C(=O)O)o3)nc2c1,IC50,[5],17 µM (active)
O=C(O)c1ccc(CNc2ccccc2C(=O)O)cc1,IC50,[5],25.3 µM (active)
